Experiments:
Assay type in all cases: functional, Hepatocyte
Rattus norvegicus [1] = species on record: Rattus norvegicus; experiment: Tested for release of glutamic pyruvic transaminase (GPT) from CCl4 induced toxicity in primary cultures of rat hepatocytes at 0.01 uM concentration
Rattus norvegicus [2] = species on record: Rattus norvegicus; experiment: Tested for release of glutamic pyruvic transaminase (GPT) from CCl4 induced toxicity in primary cultures of rat hepatocytes at 10 uM concentration
Rattus norvegicus [3] = species on record: Rattus norvegicus; experiment: Tested for release of glutamic pyruvic transaminase (GPT) from CCl4 induced toxicity in primary cultures of rat hepatocytes at 0.1 uM concentration
Rattus norvegicus [4] = species on record: Rattus norvegicus; experiment: Tested for release of glutamic pyruvic transaminase (GPT) from CCl4 induced toxicity in primary cultures of rat hepatocytes at 1 uM concentration
Rattus norvegicus [5] = species on record: Rattus norvegicus; experiment: Tested for release of glutamic pyruvic transaminase (GPT) from CCl4 induced toxicity in primary cultures of rat hepatocytes at 50 uM concentration

Structure (SMILES): O=Cc1ccc(CO)n1CCCC(=O)O
- Relative protection (Rattus norvegicus [1]): 12.4%
- Relative protection (Rattus norvegicus [2]): 3.2%
- Relative protection (Rattus norvegicus [3]): 64.4%
- Relative protection (Rattus norvegicus [4]): 39.7%

Structure (SMILES): COC(=O)CCCn1c(C=O)ccc1CO
- Relative protection (Rattus norvegicus [1]): 5.1%
- Relative protection (Rattus norvegicus [2]): 20.8%
- Relative protection (Rattus norvegicus [3]): 30.8%
- Relative protection (Rattus norvegicus [4]): 40.8%

Structure (SMILES): COCc1ccc(C=O)n1CCCC(=O)OC
- Relative protection (Rattus norvegicus [1]): 8.9%
- Relative protection (Rattus norvegicus [2]): 15.9%
- Relative protection (Rattus norvegicus [3]): 38.5%
- Relative protection (Rattus norvegicus [4]): 13.2%

Structure (SMILES): COCc1ccc(C=O)n1CCCC(=O)O
- Relative protection (Rattus norvegicus [1]): 36%
- Relative protection (Rattus norvegicus [2]): 14.2%
- Relative protection (Rattus norvegicus [3]): 65.8%
- Relative protection (Rattus norvegicus [4]): 29.2%

Structure (SMILES): COc1cc([C@H]2Oc3cc([C@H]4Oc5cc(O)cc(O)c5C(=O)[C@@H]4O)ccc3O[C@@H]2CO)ccc1O [SILIBININ]
- Relative protection (Rattus norvegicus [2]): 28.8%
- Relative protection (Rattus norvegicus [5]): 45.5%
- Relative protection (Rattus norvegicus [4]): 14.6%

Source: ChEMBL document CHEMBL1136365, “Hepatoprotective pyrrole derivatives of Lycium chinense fruits” (2003)
